Source: ChEMBL document CHEMBL3507680, “University of Dundee, Gates Library screen for HepG2 cell viability”

Assay: Human HepG2 cell viability assay in 384 well format
Assay type: toxicity, cell-based
Design: dose 125 nL, time 70.5 hour; cytotoxicity at 70.5 h: concentration not given beside the values
Details: HepG2 cells, read-out: Inhibition

| Compound | cytotoxicity at 70.5 h |
| --- | --- |
| CS(=O)(=O)N1CCO[C@@H]2CN(C(=O)C3CC(F)(F)C3)C[C@@H]2C1 | -3.63% |
| CN1[C@H](CN2CCCC2)C[C@@H]2CN(C(=O)c3cnccn3)CC[C@@H]21 | -4.55% |
| Cc1occc1C(=O)N1C[C@@H]2CCCO[C@@H]2[C@H](NS(C)(=O)=O)C1 | -1.97% |
| O=C(CC1CC1)N[C@@H]1CN(C(=O)c2ccsc2)C[C@@H]2CCCO[C@@H]21 | -1.55% |
| Cc1ccc(N2CCC3(CCN(Cc4csc(C)n4)C3=O)C2)nn1 (stereo unspecified) | -3.25% |
| COc1cc(N2CCC3(CCN(Cc4cccnc4)C3=O)C2)ncn1 (stereo unspecified) | -4.34% |
| Cn1nc(CNc2ncccn2)c2c1CN(c1cnccn1)CC2 | -8.13% |
| O=C(c1ccco1)N1CCO[C@@H]2CNC[C@@H]21 | -6.25% |
| Cn1cc(CN2C[C@@H]3CN(C(=O)c4cccn4C)CCO[C@@H]3C2)cn1 | -2.93% |
| CC(=O)N1CC[C@H]2N(C)CC[C@@]2(C(=O)Nc2cccnc2)CC1 | -8.43% |
| CCOCC1CN(C(=O)c2ccoc2)Cc2cnn(C)c21 (stereo unspecified) | 13.6% |
| O=C(c1ccco1)N1Cc2cnn(CC3CC3)c2C(COCC2CC2)C1 (stereo unspecified) | 15.4% |
| Cn1ncc2c1C(COCC1CC1)CN(C(=O)c1ccoc1)C2 (stereo unspecified) | 14.1% |
| CCn1nnc2c1C(COCC(=O)N(C)C)CN(Cc1ccoc1)C2 (stereo unspecified) | -0.882% |
| O=C(c1ccsc1)N1C[C@@H]2CCN(C(=O)c3cscn3)[C@@H]2C1 | -6.91% |
| Cn1cc(-c2cnc(-c3ccnn3C)nc2)cc1C(=O)N1CCCC1 | -4.76% |
| O=c1ccc2c(n1CCN1CCCC1)CCN(c1ncccn1)CC2 | -4.06% |
| CC(=O)N1CCO[C@@H]2CN(S(=O)(=O)c3ccc(F)cc3)CC[C@@H]2C1 | -6.92% |
| c1cnc(N2CCc3onc(CN4CCOCC4)c3C2)cn1 | -9.12% |
| COCC1COCCC12CCN(S(=O)(=O)c1ccccc1)CC2 (stereo unspecified) | 0.595% |
| CC[C@H](C)Nc1nccc(-c2cnc3sc(C)cn3c2=O)n1 | -5.35% |
| NS(=O)(=O)NCc1cc(-c2ccc(C(F)(F)F)cc2)n[nH]1 | -5.31% |
| N#Cc1ccc(Nc2nc3c(s2)C(=O)CN(CC2CC2)C3)cc1 | -4.09% |
| CN(C)c1ncc(-c2ccc(NC(=O)[C@@H]3CCCCN3)cc2)cn1 | -0.758% |
| CN(C)CCN1CCN(C)c2nc(-c3ccccc3)ncc2C1=O | -9.02% |
| c1cc(-c2c[nH]nc2C2CCCCC2)nc(N2CCCCCC2)n1 | 2.67% |

| Compound | cytotoxicity at 70.5 h |
| --- | --- |
| CNC(=O)Cc1cc2nccc(-c3c(OC)cccc3OC)n2n1 | -7.19% |
| OC[C@H]1CCCN1c1nccc(-c2c[nH]nc2C2CCCCC2)n1 | 2.37% |
| Cc1cn2c(=O)c(-c3ccnc(N[C@@H]4CCOC4)n3)cnc2s1 | -3.69% |
| CC[C@H](C)[C@H](N)C(=O)Nc1nc(-c2cnc(N(C)C)nc2)cs1 | -0.629% |
| Cc1[nH]c2ccccc2c1-c1ccnc(NCCN2CCCCC2)n1 | -3.28% |
| CC(C)CC(=O)N1CC(=O)c2sc(NC3CCCCC3)nc2C1 | 1.17% |
| CN1CCN(c2nccc(-c3cncnc3C3CCCCC3)n2)CC1 | -5.17% |
| NCCSc1nccc(-c2cnc(C3CC3)nc2-c2ccco2)n1 | 21.8% |
| OC[C@H]1CCCN1c1nccc(-c2cncnc2C2CCCCC2)n1 | -2.18% |
| CC[C@@H](CO)Nc1nccc(-c2c[nH]c3cc(C(=O)OC)ccc23)n1 | -2.08% |
| Cc1ncc(-c2ccnc(SCCN(C)C)n2)c(-c2ccco2)n1 | 20.1% |
| Cc1csc2ncc(-c3ccnc(NC4CCOCC4)n3)c(=O)n12 | 0.723% |
| Cc1ncc(-c2ccnc(N3CCC[C@@H]3CO)n2)c(-c2cccnc2)n1 | -3.34% |
| Cc1ccc(-c2ccnc3cc(CC(=O)N4CCN(C)CC4)nn23)cc1 | 0.106% |
| CCNc1nc(-c2cccnc2)c(-c2ccnc(N3CCCC3)n2)s1 | -6.77% |
| CN1CCCN(c2nccc(-c3cncnc3C3CCCCC3)n2)CC1 | 20.6% |
| COCC(=O)N1CC(=O)c2sc(Nc3ccc(F)cc3F)nc2C1 | 0.281% |
| NC(=O)C1CCN(c2nccc(-c3c[nH]nc3C3CCCCC3)n2)CC1 | -4.42% |
| CC(=O)N1CCC(n2ccc(-c3cnc(N4CCOCC4)nc3)n2)CC1 | -5.97% |
| CC[C@H](C)[C@H](N)C(=O)N1CC(=O)c2sc(NC3CCCCC3)nc2C1 | 3.97% |
| COc1cc(OC)cc(-c2cc(CN)nc3ccnn23)c1 | -4.26% |
| O=C(O)[C@]12CCCN(C3CCOC3)C[C@H]1CN(c1nncs1)C2 (stereo partly specified) | -7.95% |
| COc1cc(N2CCC3(CCCN(Cc4ccccn4)C3)C2)ncn1 (stereo unspecified) | -5.46% |
| Cc1cnc(N2C[C@@H]3CN(C4CCOC4)CCC[C@]3(C(=O)O)C2)nc1 (stereo partly specified) | -7.9% |
| COc1cc(N2CCC3(CCN(Cc4csc(C)n4)C3)CC2)ncn1 | -5.2% |
| COc1cc(N2CCC3(CCN(Cc4csc(C)n4)C3=O)C2)ncn1 (stereo unspecified) | -7.86% |

| Compound | cytotoxicity at 70.5 h |
| --- | --- |
| Cc1cnc(C(=O)N2Cc3ncn(C)c3C(COCC(C)C)C2)cn1 (stereo unspecified) | -4.87% |
| CCN1Cc2ccccc2CC2(CCN(CC(=O)O)CC2)C1=O | 15.3% |
| CN1Cc2ccccc2CC2(CCN(CCO)CC2)C1=O | 18% |
| Cc1ccc(CN2CC[C@@H]3OCCN(S(C)(=O)=O)[C@H]3CC2)s1 | -3.31% |
| CN(C)CCn1c2c(ccc1=O)CC(NC(=O)c1cnccn1)CC2 (stereo unspecified) | -10.4% |
| Cc1ccc(N2CCC3(CN(CCO)CCC3(F)F)C2)nn1 (stereo unspecified) | -6.24% |
| OCCN1CCC(F)(F)C2(CCN(c3cnccn3)C2)C1 (stereo unspecified) | -5.87% |
| COCC1CN(C(=O)c2ccoc2)Cc2cnn(CC3CCOCC3)c21 (stereo unspecified) | -9.06% |
| Cc1ccc(N2CCC3(CN(Cc4cccs4)CCC3(F)F)C2)nn1 (stereo unspecified) | -7.32% |
| COCCN1CCN(S(=O)(=O)c2ccccc2)Cc2cccnc21 | -5.54% |
| CN1CCO[C@@H]2CN(S(=O)(=O)c3cccs3)CC[C@@H]2C1 | -9.31% |
| Cc1ccc(N2CC[C@H](OCC3CC3)[C@@H]2Cc2cccnc2)nn1 | 1.2% |
| c1cnc(N2CCO[C@@H]3CN(Cc4ccoc4)C[C@@H]3C2)nc1 | 4.32% |
| Cc1csc(NC(=O)[C@@H]2C[C@H]3[C@H](CCN3c3ncccn3)O2)n1 | 18.3% |
| Cn1nc(CN2CCCC2)c2c1CN(c1cnccn1)CC2 | -3.39% |
| O=C(O)CN1CCCC2(CCN2Cc2cccc(F)c2)C1 (stereo unspecified) | -1.42% |
| CC(C)C(=O)N1CC[C@H]2N(C)CC[C@@]2(C(=O)Nc2cccnc2)CC1 | -10.9% |
| c1ccc(CN2CCC3(CC2)CCN(c2ccccn2)C3)nc1 | -10.3% |
| CCOCc1nn(CC2CC2)c2c1CN(Cc1cccs1)CC2 | -6.81% |
| CCn1nnc2c1C(COCCN(C)C)CN(Cc1ccco1)C2 (stereo unspecified) | 11.5% |
| Cc1ccc(N2CCC3(CN(Cc4ccncc4)CCC3(F)F)C2)nn1 (stereo unspecified) | -1.36% |
| CN(C)CCn1c2c(ccc1=O)CCN(Cc1cnn(C)c1)CC2 | 2.16% |
| CN(C)CCOCc1cncc2c1CCN(C1CCOC1)C2 (stereo unspecified) | -4.13% |
| CC(C)OCc1nn(C)c2c1CN(Cc1cccs1)CC2 | -2.74% |
